From US20030087906A1, “NITROGEN SUBSTITUTED BIARYL PURINE DERIVATIVES AS POTENT ANTIPROLIFERATIVE AGENTS” (priority 2001, published 2003)

Tests used:
HeLa S-3 cells = assay: Inhibition of cell growth of HeLa cells (SRB); assay type: cell-based, human; conditions: Homo sapiens, HeLa S3, 48 h, 2 days of treatment, replicate experiments
MCF7 = assay: NCI 60-cell line growth inhibition assay; assay type: cell-based; conditions: Homo sapiens; Breast, MCF7
MDA-MB-231/ATCC = assay: NCI 60-cell line growth inhibition assay; assay type: cell-based; conditions: Homo sapiens; Breast, MDA-MB-231/ATCC
MDA-MB-435 = assay: NCI 60-cell line growth inhibition assay; assay type: cell-based; conditions: Homo sapiens; Breast, MDA-MB-435
T-47D = assay: NCI 60-cell line growth inhibition assay; assay type: cell-based; conditions: Homo sapiens, T47D; Breast, T-47D
SF-268 = assay: NCI 60-cell line growth inhibition assay; assay type: cell-based; conditions: Homo sapiens; CNS, SF-268
SF-295 = assay: NCI 60-cell line growth inhibition assay; assay type: cell-based; conditions: Homo sapiens; CNS, SF-295
SNB-19 = assay: NCI 60-cell line growth inhibition assay; assay type: cell-based; conditions: Homo sapiens; CNS, SNB-19
U251 = assay: NCI 60-cell line growth inhibition assay; assay type: cell-based; conditions: Homo sapiens, U-251; CNS, U251
COLO 205 = assay: NCI 60-cell line growth inhibition assay; assay type: cell-based; conditions: Homo sapiens; Colon, COLO 205
HCC-2998 = assay: NCI 60-cell line growth inhibition assay; assay type: cell-based; conditions: Homo sapiens; Colon, HCC-2998
HCT-15 = assay: NCI 60-cell line growth inhibition assay; assay type: cell-based; conditions: Homo sapiens; Colon, HCT-15
HT29 = assay: NCI 60-cell line growth inhibition assay; assay type: cell-based; conditions: Homo sapiens, HT-29; Colon, HT29
KM12 = assay: NCI 60-cell line growth inhibition assay; assay type: cell-based; conditions: Homo sapiens; Colon, KM12
SW-620 = assay: NCI 60-cell line growth inhibition assay; assay type: cell-based; conditions: Homo sapiens; Colon, SW-620
CCRF-CEM = assay: NCI 60-cell line growth inhibition assay; assay type: cell-based; conditions: Homo sapiens; Leukemia, CCRF-CEM
HL-60(TB) = assay: NCI 60-cell line growth inhibition assay; assay type: cell-based; conditions: Homo sapiens; Leukemia, HL-60(TB)
K-562 = assay: NCI 60-cell line growth inhibition assay; assay type: cell-based; conditions: Homo sapiens, K562; Leukemia, K-562
MOLT-4 = assay: NCI 60-cell line growth inhibition assay; assay type: cell-based; conditions: Homo sapiens; Leukemia, MOLT-4
SR = assay: NCI 60-cell line growth inhibition assay; assay type: cell-based; conditions: Homo sapiens; Leukemia, SR
LOX IMVI = assay: NCI 60-cell line growth inhibition assay; assay type: cell-based; conditions: Homo sapiens; Melanoma, LOX IMVI
M14 = assay: NCI 60-cell line growth inhibition assay; assay type: cell-based; conditions: Homo sapiens; Melanoma, M14
MALME-3M = assay: NCI 60-cell line growth inhibition assay; assay type: cell-based; conditions: Homo sapiens; Melanoma, MALME-3M
SK-MEL-2 = assay: NCI 60-cell line growth inhibition assay; assay type: cell-based; conditions: Homo sapiens; Melanoma, SK-MEL-2
SK-MEL-28 = assay: NCI 60-cell line growth inhibition assay; assay type: cell-based; conditions: Homo sapiens; Melanoma, SK-MEL-28
UACC-257 = assay: NCI 60-cell line growth inhibition assay; assay type: cell-based; conditions: Homo sapiens; Melanoma, UACC-257
UACC-62 = assay: NCI 60-cell line growth inhibition assay; assay type: cell-based; conditions: Homo sapiens; Melanoma, UACC-62
A549/ATCC = assay: NCI 60-cell line growth inhibition assay; assay type: cell-based; conditions: Homo sapiens; Non-Small Cell Lung, A549/ATCC
EKVX = assay: NCI 60-cell line growth inhibition assay; assay type: cell-based; conditions: Homo sapiens; Non-Small Cell Lung, EKVX
NCI-H322M = assay: NCI 60-cell line growth inhibition assay; assay type: cell-based; conditions: Homo sapiens; Non-Small Cell Lung, NCI-H322M
NCI-H460 = assay: NCI 60-cell line growth inhibition assay; assay type: cell-based; conditions: Homo sapiens; Non-Small Cell Lung, NCI-H460
IGROV1 = assay: NCI 60-cell line growth inhibition assay; assay type: cell-based; conditions: Homo sapiens, IGROV-1; Ovarian, IGROV1
OVCAR-3 = assay: NCI 60-cell line growth inhibition assay; assay type: cell-based; conditions: Homo sapiens; Ovarian, OVCAR-3
OVCAR-5 = assay: NCI 60-cell line growth inhibition assay; assay type: cell-based; conditions: Homo sapiens; Ovarian, OVCAR-5
OVCAR-8 = assay: NCI 60-cell line growth inhibition assay; assay type: cell-based; conditions: Homo sapiens; Ovarian, OVCAR-8
SK-OV-3 = assay: NCI 60-cell line growth inhibition assay; assay type: cell-based; conditions: Homo sapiens; Ovarian, SK-OV-3
PC-3 = assay: NCI 60-cell line growth inhibition assay; assay type: cell-based; conditions: Homo sapiens; Prostate, PC-3
ACHN = assay: NCI 60-cell line growth inhibition assay; assay type: cell-based; conditions: Homo sapiens; Renal, ACHN
CAKI-1 = assay: NCI 60-cell line growth inhibition assay; assay type: cell-based; conditions: Homo sapiens; Renal, CAKI-1
RXF 393 = assay: NCI 60-cell line growth inhibition assay; assay type: cell-based; conditions: Homo sapiens; Renal, RXF 393
TK-10 = assay: NCI 60-cell line growth inhibition assay; assay type: cell-based; conditions: Homo sapiens; Renal, TK-10
UO-31 = assay: NCI 60-cell line growth inhibition assay; assay type: cell-based; conditions: Homo sapiens; Renal, UO-31
[1] = system: Tumor Cells in Hollow Fibers; assay: NCI Hollow Fiber Assay (in vivo evaluation); conditions: for IP Score: IP fibers; for SC score: SC fibers
[2] = MTD (NCI in vivo evaluation, Table 8); conditions: mouse
CyclinA/cdk2 = CyclinA/cdk2 (Homo sapiens, UniProt P24941); assay: CyclinA/cdk2 protein kinase assay (histone H1 phosphorylation); conditions: IC50 CyclinA/cdk2, complex immunopurified from HeLa cells; 15 μM ATP; replicate experiments
CyclinE/cdk2 = CyclinE/cdk2 (Homo sapiens, UniProt P24941); assay: CyclinE/cdk2 protein kinase assay (histone H1 phosphorylation); conditions: IC50 CyclinE/cdk2, complex immunopurified from HeLa cells; 15 μM ATP; replicate experiments

CC[C@H](CO)Nc1nc(NCc2ccc(-c3cccc(C(F)(F)F)c3)cc2)c2ncn(C(C)C)c2n1 [Compound 38]
GI50 (HeLa S-3 cells): 600 nM
GI50 (MCF7): 200 nM
GI50 (MDA-MB-231/ATCC): 60 nM
GI50 (MDA-MB-435): 50 nM
GI50 (T-47D): 250 nM
GI50 (SF-268): 200 nM
GI50 (SF-295): 500 nM
GI50 (SNB-19): 500 nM
GI50 (U251): 200 nM
GI50 (COLO 205): 160 nM
GI50 (HCC-2998): 7940 nM
GI50 (HCT-15): 250 nM
GI50 (HT29): 250 nM
GI50 (KM12): 160 nM
GI50 (SW-620): 30 nM
GI50 (CCRF-CEM): 200 nM
GI50 (HL-60(TB)): 40 nM
GI50 (K-562): 250 nM
GI50 (MOLT-4): 250 nM
GI50 (SR): 3980 nM
GI50 (LOX IMVI): 400 nM
GI50 (M14): 50 nM
GI50 (MALME-3M): 250 nM
GI50 (SK-MEL-2): 2000 nM
GI50 (SK-MEL-28): 30 nM
GI50 (UACC-257): 500 nM
GI50 (UACC-62): 1000 nM
GI50 (A549/ATCC): 130 nM
GI50 (EKVX): 200 nM
GI50 (NCI-H322M): 400 nM
GI50 (NCI-H460): 3160 nM
GI50 (IGROV1): 160 nM
GI50 (OVCAR-3): 1000 nM
GI50 (OVCAR-5): 400 nM
GI50 (OVCAR-8): 250 nM
GI50 (SK-OV-3): 3980 nM
GI50 (PC-3): 400 nM
GI50 (ACHN): 2000 nM
GI50 (CAKI-1): 200 nM
GI50 (RXF 393): 130 nM
GI50 (TK-10): 400 nM
GI50 (UO-31): 130 nM
IP Score [1]: 0
SC score [1]: 4
MTD [2]: 100 mg/kg

CC(=O)N[C@H]1CC[C@H](Nc2nc(NCc3ccc(-c4ccsc4)cc3)c3ncn(C(C)C)c3n2)CC1 [Compound 113]
Cell Types Killed [1]: OVCAR-3
IP Score [1]: 18
SC score [1]: 4
MTD [2]: 200 mg/kg
IC50 (CyclinA/cdk2): 400 nM
IC50 (CyclinE/cdk2): 300 nM
